Results reported in patent EP0034120A1, “Derivatives of phenoxy-phenoxy-carboxylic acids” (CIBA-GEIGY AG, priority 1980, dated 1981).

What was measured:
Assay type in all cases: in vivo
[1] = tested on: Reis; test: Herbicidal action, pre-emergent application (greenhouse); set-up: key: 1 Pflanze abgestorben; 2-4 schwere Schädigung; 3: 2-4 schwere Schädigung; 2-4 schwere Schädigung; 5, 6 mittlere Schäden; 5, 6 mittlere Schäden; 7, 8 leichte Schäden; 7, 8 leichte Schäden; 9 Pflanze gedeiht normal, wie unbehandelte Kontrollpflanze; settings: after 3 weeks
Description: (§1) wurde durchfolgende Versuche ermittelt: Herbizide Wirkung bei Applikation der Wirkstoffe vor dem Auflaufen der Pflanzen (pre-emergent) Im Gewächshaus werden Pflanzensamen in Blumentöpfe von ca. 11 cm Durchmesser gesät. […] Die Töpfe werden dann im Gewächshaus unter optimalen Bedingungen für das Pflanzenwachstum, regelmässiges Bewässern, einer Temperatur von 22-25°C und 50-70% relativer Luftfeuchtigkeit gehalten. Der Versuch wird nach 3 Wochen abgebrochen und der Zustand der Pflanzen gemäss dem folgenden EWRC (European Weed Research Councel) Bewertungsschema registriert: • 1 Pflanze abgestorben • 2-4 schwere Schädigung • 5, 6 mittlere Schäden • 7, 8 leichte Schäden • 9 Pflanze gedeiht normal, wie unbehandelte Kontrollpflanze.

[2] = tested on: Weizen; test: as above; set-up: key: 1 Pflanze abgestorben; 2-4 schwere Schädigung; 3: 2-4 schwere Schädigung; 2-4 schwere Schädigung; 5, 6 mittlere Schäden; 5, 6 mittlere Schäden; 7, 8 leichte Schäden; 7, 8 leichte Schäden; 9 Pflanze gedeiht normal, wie unbehandelte Kontrollpflanze; settings: after 3 weeks
Description: as §1

[3] = tested on: abutilon sp; test: as above; set-up: key: 1 Pflanze abgestorben; 2-4 schwere Schädigung; 3: 2-4 schwere Schädigung; 2-4 schwere Schädigung; 5, 6 mittlere Schäden; 5, 6 mittlere Schäden; 7, 8 leichte Schäden; 7, 8 leichte Schäden; 9 Pflanze gedeiht normal, wie unbehandelte Kontrollpflanze; settings: after 3 weeks
Description: as §1

[4] = tested on: amarantus retrofl.; test: as above; set-up: key: 1 Pflanze abgestorben; 2-4 schwere Schädigung; 3: 2-4 schwere Schädigung; 2-4 schwere Schädigung; 5, 6 mittlere Schäden; 5, 6 mittlere Schäden; 7, 8 leichte Schäden; 7, 8 leichte Schäden; 9 Pflanze gedeiht normal, wie unbehandelte Kontrollpflanze; settings: after 3 weeks
Description: as §1

[5] = tested on: beta vulgaris; test: as above; set-up: key: 1 Pflanze abgestorben; 2-4 schwere Schädigung; 3: 2-4 schwere Schädigung; 2-4 schwere Schädigung; 5, 6 mittlere Schäden; 5, 6 mittlere Schäden; 7, 8 leichte Schäden; 7, 8 leichte Schäden; 9 Pflanze gedeiht normal, wie unbehandelte Kontrollpflanze; settings: after 3 weeks
Description: as §1

[6] = tested on: chenopodium sp.; test: as above; set-up: key: 1 Pflanze abgestorben; 2-4 schwere Schädigung; 3: 2-4 schwere Schädigung; 2-4 schwere Schädigung; 5, 6 mittlere Schäden; 5, 6 mittlere Schäden; 7, 8 leichte Schäden; 7, 8 leichte Schäden; 9 Pflanze gedeiht normal, wie unbehandelte Kontrollpflanze; settings: after 3 weeks
Description: as §1

[7] = tested on: chrysanthemum l.; test: as above; set-up: key: 1 Pflanze abgestorben; 2-4 schwere Schädigung; 3: 2-4 schwere Schädigung; 2-4 schwere Schädigung; 5, 6 mittlere Schäden; 5, 6 mittlere Schäden; 7, 8 leichte Schäden; 7, 8 leichte Schäden; 9 Pflanze gedeiht normal, wie unbehandelte Kontrollpflanze; settings: after 3 weeks
Description: as §1

[8] = tested on: sinapis alba; test: as above; set-up: key: 1 Pflanze abgestorben; 2-4 schwere Schädigung; 3: 2-4 schwere Schädigung; 2-4 schwere Schädigung; 5, 6 mittlere Schäden; 5, 6 mittlere Schäden; 7, 8 leichte Schäden; 7, 8 leichte Schäden; 9 Pflanze gedeiht normal, wie unbehandelte Kontrollpflanze; settings: after 3 weeks
Description: as §1

[9] = tested on: viola tricolor; test: as above; set-up: key: 1 Pflanze abgestorben; 2-4 schwere Schädigung; 3: 2-4 schwere Schädigung; 2-4 schwere Schädigung; 5, 6 mittlere Schäden; 5, 6 mittlere Schäden; 7, 8 leichte Schäden; 7, 8 leichte Schäden; 9 Pflanze gedeiht normal, wie unbehandelte Kontrollpflanze; settings: after 3 weeks
Description: as §1

[10] = tested on: Baumwollpflanzen der Sorte Deltapine; test: Desiccation and defoliation action on cotton; settings: Aufwandmenge 0,6 kg/ha, nach 14 Tagen; only a few dried-up leaves left on the plant
Excerpt: Im Gewächshaus wurden Baumwollpflanzen der Sorte Deltapine in Tontöpfen angezogen. Nach abgeschlossener Kapselbildung wurden sie mit wässrigen Zubereitungen der Wirkstoffe in einer Aufwandmenge, die 1,2, 0,6 und 0,3 kg/ha im Feld entspräche, gespritzt. Unbehandelte Pflanzen wurden als Kontrolle belassen. Die Auswertung des Versuches erfolgte 3, 7 und 14 Tage nach Applikation der Versuchssubstanz durch Bestimmen des Grades an Defoliation (% abgefallene Blätter) und an Dessikation (% Austrocknung der an der Pflanze verbleibenden Blätter).

SMILES	Zustand der Pflanzen (EWRC Bewertungsschema) ([1]; Aufwandmenge 2 kg/ha)	Zustand der Pflanzen (EWRC Bewertungsschema) ([1]; Aufwandmenge 4 kg/ha)	Zustand der Pflanzen (EWRC Bewertungsschema) ([2]; Aufwandmenge 2 kg/ha)	Zustand der Pflanzen (EWRC Bewertungsschema) ([2]; Aufwandmenge 4 kg/ha)	Zustand der Pflanzen (EWRC Bewertungsschema) ([3]; Aufwandmenge 2 kg/ha)	Zustand der Pflanzen (EWRC Bewertungsschema) ([3]; Aufwandmenge 4 kg/ha)	Zustand der Pflanzen (EWRC Bewertungsschema) ([4]; Aufwandmenge 2 kg/ha)	Zustand der Pflanzen (EWRC Bewertungsschema) ([4]; Aufwandmenge 4 kg/ha)	Zustand der Pflanzen (EWRC Bewertungsschema) ([5]; Aufwandmenge 2 kg/ha)	Zustand der Pflanzen (EWRC Bewertungsschema) ([5]; Aufwandmenge 4 kg/ha)	Zustand der Pflanzen (EWRC Bewertungsschema) ([6]; Aufwandmenge 2 kg/ha)	Zustand der Pflanzen (EWRC Bewertungsschema) ([6]; Aufwandmenge 4 kg/ha)	Zustand der Pflanzen (EWRC Bewertungsschema) ([7]; Aufwandmenge 2 kg/ha)	Zustand der Pflanzen (EWRC Bewertungsschema) ([7]; Aufwandmenge 4 kg/ha)	Zustand der Pflanzen (EWRC Bewertungsschema) ([8]; Aufwandmenge 2 kg/ha)	Zustand der Pflanzen (EWRC Bewertungsschema) ([8]; Aufwandmenge 4 kg/ha)	Zustand der Pflanzen (EWRC Bewertungsschema) ([9]; Aufwandmenge 2 kg/ha)	Zustand der Pflanzen (EWRC Bewertungsschema) ([9]; Aufwandmenge 4 kg/ha)	Wirkung (Defoliation und Dessikation) [10] [%]
CCOC(=O)C=CC(C)Oc1cc(Oc2ccc(C(F)(F)F)cc2Br)ccc1Cl (stereo not drawn) [compound 15]	9	9	9	9	6	2	1	1	2	2	1	1	2	1	4	1	2	1	–
CC(CCC(=O)O)Oc1cc(Oc2ccc(C(F)(F)F)cc2Cl)ccc1Cl (stereo not drawn) [compound 6]	8	8	9	9	2	1	1	1	1	1	1	1	2	1	1	1	1	1	–
CCNC(=O)CCC(C)Oc1cc(Oc2ccc(C(F)(F)F)cc2Cl)ccc1Cl (stereo not drawn) [compound 7]	8	8	9	9	1	1	1	1	1	1	1	1	2	1	1	1	2	1	90
CCOC(=O)CCC(C)Oc1cc(Oc2ccc(C(F)(F)F)cc2Br)ccc1Cl (stereo not drawn) [compound 16]	9	9	9	9	5	1	2	1	1	1	1	1	1	1	1	1	2	1	90
COC(=O)CC(=O)C(C)Oc1cc(Oc2ccc(C(F)(F)F)cc2Cl)ccc1Cl (stereo not drawn) [compound 3, 4-[3'-(2"-Chlor-4"-trifluormethylphenoxy)-6'-chlorphen-oxy]-propanoylessigsäure-methylester]	7	6	9	9	6	6	1	1	1	1	1	1	1	1	2	1	3	1	90
